The values that follow come from patent publication US4963553A, “4-[(substituted) alkylcarbonyl]-4,5-dihydro- and -4,5,6,7-tetrahydro-7-[(substituted)phenyl]pyrazolo[1,5-a]pyrimidines” (American Cyanamid Co., priority 1988, dated 1990).

The assay has as its system mice (hypoxic environment). Nature of the assay: Hypoxic survival test. Type of assay: in vivo, mouse (Royal Hart). The conditions noted are these: intraperitoneal, 10% oxygen, 5 minutes; for % Survivors / responders at 100 mg/kg: 100 mg/kg. Here is the method: The hypoxic survival test is a useful in vivo test for measuring the effectiveness of central nervous system-acting drugs in enhancing survival in an hypoxic environment relative to the known parasympathomimetic agent physostigmine.
Drugs are tested by intraperitoneal injection of groups of mice 30 minutes prior to placing them in an hypoxic environment and measuring survival. The rationale of this test is that drugs which enhance survival under hypoxic conditions without concomitant depression or sedative side effects, do so by enhancing brain metabolism, i.e., by improving energy supply relative to demand and so preserving normal brain function under conditions of reduced energy metabolism. Considering the dependence of the brain on a constant supply of energy, drugs which have this property may have many far-reaching therapeutic indications, including aiding recovery from stroke and closed head injury and reducing the deleterious effects of age-related central nervous system deficits.
In the hypoxic survival test, groups of 20 Royal Hart mice (6 weeks of age) were injected intraperitoneally with a test compound in saline at various doses ranging from 1 to 200 mg/kg, 30 minutes prior to placing them in an hypoxic mixture (10% oxygen, 90% […]) and measuring survival after 5 minutes.
A control group of 20 mice was injected intraperitoneally with saline (0.01 ml/g of body weight) and processed as described above.
Another group of 20 mice was injected intraperitoneally with 0.125 mg/kg of physostigmine in saline and processed as described above.

The mark [1] stands for this setting: Mus musculus, ip, 5 min, read-out: % Survivors.

Where a name gives a salt, the structure may show the parent alone.

With `N#Cc1cnn2c1N(C(=O)CN1CCN(CCc3ccccc3)CC1)CC=C2c1cccc(C(F)(F)F)c1` [4,5-Dihydro-4-[[4-(2-phenylethyl)-1-piperazinyl]acetyl]-7-[3-trifluoromethyl)phenyl]pyrazolo[1,5-a]pyrimidine-3-carbonitrile], the “% Survivors” value is on record as 90%. With `N#Cc1cnn2c1N(C(=O)CN1CCN(c3ccccc3)CC1)CC=C2c1cc(Cl)ccc1Cl` [7-(2,5-Dichlorophenyl)-4,5-dihydro-4-[(4-phenyl-1-piperazinyl)acetyl]pyrazolo[1,5-a]pyrimidine-3-carbonitrile], the responders at 100 mg/kg under setting [1] was determined as 70%. Still for that read-out and setting: the figure for `CC1=C(c2cccc(Cl)c2)n2ncc(C#N)c2N(C(=O)CN2CCN(Cc3cccc(C(F)(F)F)c3)CC2)C1` [7-(3-Chlorophenyl)-4,5-dihydro-6-methyl-4-[[4-[[3-(trifluoromethyl)phenyl]methyl]-1-piperazinyl]acetyl]pyrazolo[1,5-a]pyrimidine-3-carbonitrile, sesquihydrochloride] is 35%.

In the case of `N#Cc1cnn2c1N(C(=O)CN1CCN(Cc3cccc(Cl)c3)CC1)CCC2c1cccc(C(F)(F)F)c1` (stereo not shown) [Example 53, 4-[[4-[(3-Chlorophenyl)methyl]-1-piperazinyl]acetyl]-4,5,6,7-tetrahydro-7-[3-(trifluoromethyl)phenyl]pyrazolo[1,5-a]pyrimidine-3-carbonitrile], under setting [1], the responders at 100 mg/kg was found to be 15%. For `N#Cc1cnn2c1N(C(=O)CN1CCN(Cc3c(Cl)cccc3Cl)CC1)CCC2c1cccc(C(F)(F)F)c1` (stereo not shown) [Example 54, 4-[[4-[(2,6-Dichlorophenyl)methyl]-1-piperazinyl]acetyl]-4,5,6,7-tetrahydro-7-[3-(trifluoromethyl)phenyl]pyrazolo[1,5-a]pyrimidine-3-carbonitrile], the responders at 10 mg/kg under setting [1] was determined as 25%. As for `N#Cc1cnn2c1N(C(=O)CN1CCN(Cc3ccccc3)CC1)CC=C2c1ccc(Cl)cc1` [Example 58, 7-(4-Chlorophenyl)-4,5-dihydro-4-[[4-(phenylmethyl)-1-piperazinyl]acetyl]pyrazolo[1,5-a]pyrimidine-3-carbonitrile], under setting [1], the responders at 10 mg/kg turned out to be 50% and the responders at 100 mg/kg was determined as 82.5%. On to `N#Cc1cnn2c1N(C(=O)CN1CCN(Cc3ccccc3C(F)(F)F)CC1)CC=C2c1ccc(Cl)cc1` [Example 59, 7-(4-Chlorophenyl)-4,5-dihydro-4-[[4-[[2-(trifluoromethyl)phenyl]methyl]-1-piperazinyl]acetyl]pyrazolo[1,5-a]pyrimidine-3-carbonitrile], for which, under setting [1], the responders at 10 mg/kg amounted to 55% and the responders at 100 mg/kg is 90%.

On to `N#Cc1cnn2c1N(C(=O)CN1CCN(Cc3ccccc3)CC1)CC=C2c1cc(Cl)ccc1Cl` [Example 62, 7-(2,5-Dichlorophenyl)-4,5-dihydro-4-[[4-(phenylmethyl)-1-piperazinyl]acetyl]pyrazolo[1,5-a]pyrimidine-3-carbonitrile], for which the responders at 100 mg/kg under setting [1] came to 50%. For the compound `Cc1ccc(C)c(N2CCN(CC(=O)N3CC=C(c4cc(Cl)ccc4Cl)n4ncc(C#N)c43)CC2)c1` [Example 66, 7-(2,5-Dichlorophenyl)-4-[[4-(2,5-dimethylphenyl)-1-piperazinyl]acetyl]-4,5-dihydropyrazolo[1,5-a]pyrimidine-3-carbonitrile], under setting [1], the responders at 100 mg/kg turned out to be 45% and the responders at 200 mg/kg was found to be 80%. In the case of `N#Cc1cnn2c1N(C(=O)CN1CCN(C(=O)c3ccccc3)CC1)CC=C2c1cccc(C(F)(F)F)c1` [Example 68, 4-[[4-Benzoyl-1-piperazinyl)acetyl]-4,5-dihydro-7-[3-(trifluoromethyl)phenyl]pyrazolo[1,5-a]pyrimidine-3-carbonitrile], the responders at 100 mg/kg under setting [1] worked out at 95%. For the compound `CC1C=C(c2cccc(C(F)(F)F)c2)n2ncc(C#N)c2N1C(=O)CN1CCN(Cc2ccccc2)CC1` (stereo not shown) [Example 72, 4,5-Dihydro-5-methyl-4-[[4-(phenylmethyl)-1-piperazinyl]acetyl]-7-[3-(trifluoromethyl)phenyl]pyrazolo[1,5-a]pyrimidine-3-carbonitrile], the “% Survivors” value was 25%.

Regarding `NC(=O)c1cnn2c1N(C(=O)CN1CCN(Cc3ccccc3)CC1)CC=C2c1cccc(C(F)(F)F)c1` [Example 75, 4,5-Dihydro-4-[[4-(phenylmethyl)-1-piperazinyl]acetyl]-7-[3-(trifluoromethyl)phenyl]pyrazolo[1,5-a]pyrimidine-3-carboxamide], under setting [1], the responders at 10 mg/kg was 15%.

For `O=C(CN1CCN(Cc2ccccc2)CC1)N1CC=C(c2cccc(C(F)(F)F)c2)n2ncc(Br)c21` [Example 76, 3-Bromo-4,5-dihydro-4-[[4-(phenylmethyl)-1-piperazinyl]acetyl]-7-[3-(trifluoromethyl)phenyl]pyrazolo[1,5-a]pyrimidine], the responders at 100 mg/kg under setting [1] stood at 35%. Same read-out and setting: the figure for `N#Cc1cnn2c1N(C(=O)CN1CCN(C(c3ccc(F)cc3)c3ccc(F)cc3)CC1)CC=C2c1cccc(C(F)(F)F)c1` [Example 88, 4-[[4-[Bis(4-Fluorophenyl)methyl]-1-piperazinyl]acetyl]-4,5-dihydro-7-[3-(trifluoromethyl)phenyl]pyrazolo[1,5-a]pyrimidine-3-carbonitrile, dihydrochloride] is 55%.

`N#Cc1cnn2c1N(C(=O)CN1CCN(C3CCC3)CC1)CC=C2c1cccc(C(F)(F)F)c1` [Example 91, 4-[(4-Cyclobutyl-1-piperazinyl)acetyl]-4,5-dihydro-7-[3-(trifluoromethyl)phenyl]pyrazolo[1,5-a]pyrimidine-3-carbonitrile, dihydrochloride]: the responders at 10 mg/kg under setting [1] was 55%.

As to `CC1C=C(c2cccc(C(F)(F)F)c2)n2ncc(C#N)c2N1C(=O)CN1CCN(Cc2ccccc2)CC1` (stereo not shown) [Example 95, 4,5-Dihydro-5-methyl-4-[[4-(phenylmethyl)-1-piperazinyl]acetyl]-7-[3-(trifluoromethyl)phenyl]pyrazolo[1,5-a]pyrimidine-3-carbonitrile, dihydrochloride], the responders at 100 mg/kg under setting [1] was 43%.

For `N#Cc1cnn2c1N(C(=O)CN1CCN(C(=O)Nc3ccc(Cl)c(C(F)(F)F)c3)CC1)CC=C2c1cccc(C(F)(F)F)c1` [Example 106, N-[4-Chloro-3-(trifluoromethyl)phenyl]-4-[2-[3-cyano-7-[3-(trifluoromethyl)phenyl)pyrazolo[1.5-a]pyrimidin-4(5H)-yl]-2-oxoethyl]-1-piperazinecarboxamide], the responders at 100 mg/kg under setting [1] worked out at 15%. Still for that read-out and setting: next, `N#Cc1cnn2c1N(C(=O)CN1CCN(C(=O)Nc3ccc(F)cc3F)CC1)CC=C2c1cccc(C(F)(F)F)c1` [Example 107]: 20%.

In the case of `CC1=C(c2cccc(C(F)(F)F)c2)n2ncc(C#N)c2N(C(=O)CN2CCN(Cc3ccccc3)CC2)C1` [Example 111, 4,5-Dihydro-6-methyl-4-[[4-(phenylmethyl)-1-piperazinyl]acetyl]-7-[3-(trifluoromethyl)phenyl]pyrazolo[1.5-a]pyrimidine-3-carbonitrile. dihydrochloride], under setting [1], the responders at 100 mg/kg is 73%. In the case of `CC1=C(c2cccc(Cl)c2)n2ncc(C#N)c2N(C(=O)CN2CCN(Cc3ccccc3)CC2)C1` [Example 113, 7-(3-Chlorophenyl)-4.5-dihydro-6-methyl-4-[[4-(phenylmethyl)piperazinyl]acetyl]pyrazolo[1,5-a]pyrimidine-3-carbonitrile, dihydrochloride], the responders at 100 mg/kg under setting [1] was determined as 30%. The same measure, in the same setting: next, `CC1=C(c2ccc(Cl)cc2)n2ncc(C#N)c2N(C(=O)CN2CCN(Cc3ccccc3)CC2)C1` [Example 114, 7-(4-Chlorophenyl)-4.5-dihydro-6-methyl-4[[4-(phenylmethyl)piperazinyllacetyllpyrazolo[1,5-a]pyrimidine-3-carbonitrile, dihydrochloride]: 25%. Turning to `CC1=C(c2cccc(Cl)c2)n2ncc(C#N)c2N(C(=O)CN2CCN(Cc3cccc(C(F)(F)F)c3)CC2)C1` [Example 127, 7-(3-Chlorophenyl)-4,5-dihydro-6-methyl-4-[[4-[[3-(trifluoromethyl)phenyl]methyl]-1-piperazinyl]acetyl]pyrazolo[1,5-a]pyrimidine-3-carbonitrile], the responders at 200 mg/kg under setting [1] stood at 73%.

Regarding `N#Cc1cnn2c1N(C(=O)CN1CCN(Cc3cccc(C(F)(F)F)c3)CC1)CC=C2c1cccc(C(F)(F)F)c1` [Example 128, 4,5-Dihydro-4-[[4-[(3-trifluoromethylphenyl)methyl]-1-piperazinyl]acetyl]-7-[3-(trifluoromethyl)phenyl]pyrazolo[1,5-a]pyrimidine-3-carbonitrile], the “% Survivors” value is recorded as 40%.

With `CC1=C(c2cccc(Cl)c2)n2ncc(C#N)c2N(C(=O)CN2CCN(Cc3cccc(Cl)c3)CC2)C1` [Example 131, 7-(3-Chloroohenyl)-4-[[4-[(3-Chlorophenyl)methyl-1-piperazinyl]acetyl]4,5-dihydro-6-methylpyrazolo[1,5-a]pyrimidine-3-carbonitrile, dihydrochloride], the responders at 50 mg/kg (Mus musculus, ip, 5 min, 50 mg/kg, read-out: % Survivors) came to 73%. Further, the responders at 100 mg/kg under setting [1] came to 77%.
